We go through one molecule from patent publication US20100028427A1, “IMMEDIATE RELEASE FORMULATIONS OF 1-AMINOCYCLOHEXANE COMPOUNDS, MEMANTINE AND NERAMEXANE” (Forest Laboratories, Inc., priority 2004, published 2010).

A short description of this series: Solubility and permeability (Biopharmaceutical Classification System). Type of series: physicochemical.

Structures are written as SMILES.

In the case of `CC12CC3CC(C)(C1)CC(N)(C3)C2.Cl` [Memantine HCl, 1-amino-3,5-dimethyladamantane hydrochloride], the solubility result is given as “highly soluble”.
